# Measurements: US4443438A (priority 1978, dated 1984)
# Read-outs that look alike come from different tables or passages of the source.
# Tests used:
# [1] = tested on: pesticide-resistant green rice leafhopper (Nephotettix cincticeps); assay: whole plant or invertebrate; type: in vivo; settings: for mortality at 0.0125 % / mortality at 0.0225 %: Nephotettix cincticeps, 24 h, read-out: Mortality (%) after 24 hours
# Experimental: The dilute solution was sprayed on rice plants in a 180-ml plastic cup at a rate of 15 cc/3 cups by means of a turn table. After air-drying, the treated rice plants were placed in a 5-liter beaker which was then covered with gauze. About 15 female adults of pesticide-resistant green rice leafhopper (Nephotettix cincticeps) were released in the beaker. After 3 hours, the knock-down ratio was examined, and after 24 hours the mortality was examined.
# [2] = tested on: green rice leafhoppers (Nephotettix cincticeps); assay: Density index of green rice leafhopper adults in paddy field, sweeping method (Experimental example 1); type: in vivo; settings: 3 kg/10 are, untreated = 100
# [3] = tested on: pesticide-resistant green rice leafhopper (Nephotettix cincticeps); assay: Mortality of pesticide-resistant green rice leafhopper on dusted rice plants (Experimental example 3); type: in vivo; settings: 2 kg/10 are
# Experimental: The dusts (36), (37), (39), (43), (47) or (48) prepared in Preparation example 2 were each applied by means of a Bell jar duster to rice plants in a 1/10,000 are Wagner's pot at a rate of 2 kg/10 are. The treated pot was placed in a cylinder (diameter 20 cm, height 60 cm) which was then covered with gauze. About 30 female adults of pesticide-resistant green rice leafhopper (Nephotettix cincticeps) were liberated therein. After 24 hours, the mortality was examined.
# [4] = in vivo; settings: mouse, po
# [5] = tested on: rice stem borer (Chilo suppressalis); assay: Mortality of rice stem borer on dusted rice plants (Experimental example 4); type: in vivo; settings: 3 kg/10 are, five days after application, 7200 min
# Source text: About 50 eggs just before hatch of rice stem borer (Chilo suppressalis) were put on rice plants at the tiller stage cultivated in a 1/5,000 are Wagner's pot. After 5 days, the dust (1) prepared in Preparation example 2 was applied thereto at a rate of 3 kg/10are by means of a Bell jar duster. Five days after application, the rice stem was dissected to observe the dead and alive of rice stem borers.
# [6] = Fish toxicity to carps, TLm48 (Experimental example 6); type: in vivo; settings: carp, in vivo, read-out: TLm48 (ppm)
# Experimental: (§1) Ten liters of the dilute solution was placed in a 10-liter glass vessel and 10 carps were liberated therein. After 48 hours, the dead and alive were examined to calculate TLm48 (ppm).
# [7] = tested on: harmful organisms; settings: reported in Published Unexamined Japanese Patent Application No. 125145/1977; cited from earlier work
# [8] = tested on: carps; assay: Fish toxicity to carps, TLm48 (Experimental example 6); type: in vivo; settings: as 0.3% dust; 48 hours
# Experimental: as §1
# [9] = as 20% wettable powder, diluted 25,000 times
# [10] = 25% wettable powder, diluted 2,000 times
molecule,measurement,setting,value
CC1(C)C(C=C(Cl)Cl)C1C(=O)OC(C#N)c1cccc(Oc2ccc(Br)cc2)c1 (racemic),Knock-down ratio (%) after 3 hours,[1]; [9],50%
same,Mortality (%) after 24 hours,[1]; [9],80%
"CC1(C)C(C=C(Cl)Cl)C1C(=O)OC(C#N)c1cccc(Oc2ccc(Br)cc2)c1 (racemic) [m-(p-bromophenoxy)-α-cyanolbenzyl trans- or trans-rich-2,2-dimethyl-3-(2,2-dichlorovinyl)cyclopropanecarboxylate]",Density index After 2 days,[2]; as 0.1% dust,5
same,Density index After 15 days,[2]; as 0.1% dust,25
same,Mortality (%) after 24 hours,[3]; as 0.05% dust,85%
same,LD50 at 24 h,[4],> 2000 mg/kg
"CC1(C)[C@H](C=C(Cl)Cl)[C@H]1C(=O)OC(C#N)c1cccc(Oc2ccc(Br)cc2)c1 (relative stereo) [Compound of the formula (I) [dl(acid moiety)-trans isomer], m-(p-bromophenoxy)-α-cyanolbenzyl trans- or trans-rich-2,2-dimethyl-3-(2,2-dichlorovinyl)cyclopropanecarboxylate]",Density index After 2 days,[2]; as 0.1% dust,3
same,Density index After 15 days,[2]; as 0.1% dust,18
same,Mortality (%),[5]; as 0.1% dust,20%
same,LC50 at 48 h,[6]; as 0.1% dust,> 5 µg/mL
same,LD50 at 24 h,[4],> 2000 mg/kg
"CCC(C)c1ccccc1OC(=O)NC (centres unmarked) [BPMC, 2-sec-Butylphenyl N-methylcarbamate]",Knock-down ratio (%) after 3 hours,[1]; [10],3%
same,mortality at 0.0125 %,[1]; [10],3%
"COP(=S)(OC)Oc1ccc(SC)c(C)c1 [Baycid, O,O-Dimethyl O-[3-methyl-4-(methylthio)phenyl]thiophosphate]",mortality at 0.0225 %,[1],20%
same,Knock-down ratio (%) after 3 hours,[1]; in vivo,0%
"CCOP(=S)(OCC)Oc1cc(C)nc(C(C)C)n1 [Diazinon, O,O-Diethyl O-(2-isopropyl-4-methyl-6-pyrimidinyl)phosphorothioate]",Density index After 2 days,[2]; as 5% dust,20
same,Density index After 15 days,[2]; as 5% dust,35
same,LC50 at 48 h,[6]; as 0.3% dust,> 5 µg/mL
"CC(C)OP(=O)(OC(C)C)SCc1ccccc1 [IBP, O,O-Diisopropyl S-benzylphosphorothioate]",mortality at 0.0225 %,[1],0%
same,Knock-down ratio (%) after 3 hours,[1]; in vivo,0%
same,LC50 at 48 h,[6]; as 0.3% dust,> 5 µg/mL
"CCCOP(=O)(OCCC)Oc1ccc(SC)cc1 [Kayaphos, O,O-Di-n-propyl p-methylthiophenylphosphate]",Mortality (%) after 24 hours,[3]; as 2% dust,43%
"CNC(=O)Oc1ccc(C)c(C)c1 [MPMC, 3,4-Xylyl N-methylcarbamate]",Density index After 2 days,[2]; as 3% dust,7
same,Density index After 15 days,[2]; as 3% dust,60
same,Knock-down ratio (%) after 3 hours,[1]; [10],10%
same,mortality at 0.0125 %,[1],10%
"CNC(=O)Oc1cccc(C)c1 [MTMC, m-Tolyl N-methylcarbamate]",Mortality (%) after 24 hours,[3]; as 2% dust,30%
"CNC(=O)Oc1cccc2ccccc12 [NAC, 1-Naphthyl N-methylcarbamate]",mortality at 0.0125 %,[1],10%
"CNC(=O)Oc1ccccc1OC(C)C [PHC, 2-Isopropoxyphenyl N-methylcarbamate]",LC50 at 48 h,[6]; as 0.3% dust,> 5 µg/mL
"COP(=S)(OC)Oc1ccc([N+](=O)[O-])c(C)c1 [Sumithion, O,O-Dimethyl O-(3-methyl-4-nitrophenyl)phosphorothioate]",Density index After 2 days,[2]; as 5% dust,60
same,Density index After 15 days,[2]; as 5% dust,95
same,mortality at 0.0225 %,[1],15%
same,Knock-down ratio (%) after 3 hours,[1]; in vivo,0%
same,Mortality (%) after 24 hours,[3]; as 2% dust,10%
same,Mortality (%),[5]; as 3% dust,70%
same,LD50 at 24 h,[4],> 1000 mg/kg
"CC1(C)C(C=C(Cl)Cl)C1C(=O)OC(C#N)c1cccc(Oc2ccc(Br)cc2)c1 (stereo not drawn) [compound of the formula (I), m-(p-bromophenoxy)-α-cyanolbenzyl trans- or trans-rich-2,2-dimethyl-3-(2,2-dichlorovinyl)cyclopropanecarboxylate]",insecticidal and acaricidal activity,[7],has insecticidal and acaricidal activity
m-Isopropylphenoxy N-methylcarbamate [MIPC],TLm48 (ppm),[8],> 5 ppm
